Measurements from PMC8617627, “Novel DYRK1A Inhibitor Rescues Learning and Memory Deficits in a Mouse Model of Down Syndrome” (Pharmaceuticals, 2021).
Where two headings read alike, the source gives them in different places.

Key:
Assay in all cases: Kinase profile (33P ATP filter binding)
Type in all cases: biochemical
Settings in all cases: read-out: Remaining protein kinase activity
ASK1 = molecular target: T1, ASK1 (Homo sapiens, UniProt Q99683)
T1 sequence (Q99683 1-1374): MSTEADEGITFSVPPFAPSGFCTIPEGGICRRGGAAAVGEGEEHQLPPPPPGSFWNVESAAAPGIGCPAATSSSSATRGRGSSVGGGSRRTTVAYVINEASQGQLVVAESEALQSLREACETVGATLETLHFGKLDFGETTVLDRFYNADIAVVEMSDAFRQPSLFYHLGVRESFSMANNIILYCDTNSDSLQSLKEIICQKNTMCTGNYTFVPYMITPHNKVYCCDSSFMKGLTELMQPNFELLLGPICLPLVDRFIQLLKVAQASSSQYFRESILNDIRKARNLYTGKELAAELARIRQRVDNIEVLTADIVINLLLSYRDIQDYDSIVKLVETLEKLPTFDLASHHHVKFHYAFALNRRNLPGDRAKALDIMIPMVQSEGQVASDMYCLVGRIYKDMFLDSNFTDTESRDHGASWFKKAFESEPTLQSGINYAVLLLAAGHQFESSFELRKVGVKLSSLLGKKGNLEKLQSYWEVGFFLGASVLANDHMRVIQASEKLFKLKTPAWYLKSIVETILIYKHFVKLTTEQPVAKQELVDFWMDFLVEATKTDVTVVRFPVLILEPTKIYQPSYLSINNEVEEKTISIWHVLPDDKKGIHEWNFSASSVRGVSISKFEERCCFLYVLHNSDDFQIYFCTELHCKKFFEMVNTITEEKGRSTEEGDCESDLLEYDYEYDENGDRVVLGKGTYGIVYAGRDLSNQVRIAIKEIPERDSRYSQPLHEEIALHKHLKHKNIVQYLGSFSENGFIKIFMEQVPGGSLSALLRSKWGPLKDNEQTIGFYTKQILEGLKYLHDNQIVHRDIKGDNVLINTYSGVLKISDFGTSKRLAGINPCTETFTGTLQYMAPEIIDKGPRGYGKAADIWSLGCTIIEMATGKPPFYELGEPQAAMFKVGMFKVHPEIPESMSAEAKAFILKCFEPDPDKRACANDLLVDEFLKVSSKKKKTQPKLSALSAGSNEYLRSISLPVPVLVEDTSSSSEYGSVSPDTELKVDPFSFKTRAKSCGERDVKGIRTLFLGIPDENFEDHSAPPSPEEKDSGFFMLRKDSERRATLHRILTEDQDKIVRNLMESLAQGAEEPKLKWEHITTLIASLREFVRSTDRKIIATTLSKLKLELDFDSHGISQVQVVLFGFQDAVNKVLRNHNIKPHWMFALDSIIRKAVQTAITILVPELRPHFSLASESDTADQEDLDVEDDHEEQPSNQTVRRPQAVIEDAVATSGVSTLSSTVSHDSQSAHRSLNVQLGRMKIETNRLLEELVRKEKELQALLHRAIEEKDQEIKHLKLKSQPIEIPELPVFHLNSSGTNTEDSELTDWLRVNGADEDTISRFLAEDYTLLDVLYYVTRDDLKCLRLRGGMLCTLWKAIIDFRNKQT
Method: (§1) The compounds were diluted to the appropriate concentration. The compounds were added to a “mother plate” consisting of samples, controls, and blanks. These serve as the source for “daughter plates” which are stored at −20 °C until assay initiation. Protein Kinases: Enzyme/Substrate mixture was added to the compound, and the compounds were incubated for five minutes at room temperature (RT). ^33P ATP was added to the compounds to initiate the assay. Orthophosphoric acid was added to the compounds to halt the assay. Assay components were harvested onto P81 filter plates, filter plates were air-dried, scintillation fluid was added to plates, and counts were read on a Topcount NXT. A mean percentage activity was calculated.

ERK1 = ERK1 (Homo sapiens, UniProt P27361)
Method: as §1

GCK = molecular target: T2, GCK (Homo sapiens, UniProt Q12851)
T2 sequence (Q12851 1-820): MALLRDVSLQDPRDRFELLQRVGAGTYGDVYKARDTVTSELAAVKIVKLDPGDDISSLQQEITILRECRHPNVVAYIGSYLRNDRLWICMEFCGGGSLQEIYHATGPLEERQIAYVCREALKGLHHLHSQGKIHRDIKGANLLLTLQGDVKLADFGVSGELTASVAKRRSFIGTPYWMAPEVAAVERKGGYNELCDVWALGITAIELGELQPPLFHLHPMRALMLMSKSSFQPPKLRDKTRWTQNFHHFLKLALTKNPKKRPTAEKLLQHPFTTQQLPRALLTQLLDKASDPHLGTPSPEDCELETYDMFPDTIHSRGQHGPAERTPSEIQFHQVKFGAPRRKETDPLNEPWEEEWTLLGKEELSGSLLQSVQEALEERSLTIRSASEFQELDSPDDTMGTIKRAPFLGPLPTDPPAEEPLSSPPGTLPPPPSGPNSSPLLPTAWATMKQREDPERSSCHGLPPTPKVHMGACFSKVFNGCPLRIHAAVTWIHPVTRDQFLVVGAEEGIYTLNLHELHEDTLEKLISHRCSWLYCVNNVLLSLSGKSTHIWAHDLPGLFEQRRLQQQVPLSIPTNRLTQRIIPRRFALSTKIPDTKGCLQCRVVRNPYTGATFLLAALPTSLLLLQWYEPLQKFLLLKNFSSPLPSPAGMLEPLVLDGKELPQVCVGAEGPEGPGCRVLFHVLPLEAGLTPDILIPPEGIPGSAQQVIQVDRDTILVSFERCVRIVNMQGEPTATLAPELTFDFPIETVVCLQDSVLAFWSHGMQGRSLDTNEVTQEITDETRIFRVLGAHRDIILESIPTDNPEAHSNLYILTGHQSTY
Method: as §1

PIM1 = PIM1 (Homo sapiens, UniProt P11309)
Method: as §1

RIPK2 = RIPK2 (Homo sapiens, UniProt O43353)
Method: as §1

YES1 = YES1 (Homo sapiens, UniProt P07947)
Method: as §1

RIPK2, sequence (O43353 whole entry): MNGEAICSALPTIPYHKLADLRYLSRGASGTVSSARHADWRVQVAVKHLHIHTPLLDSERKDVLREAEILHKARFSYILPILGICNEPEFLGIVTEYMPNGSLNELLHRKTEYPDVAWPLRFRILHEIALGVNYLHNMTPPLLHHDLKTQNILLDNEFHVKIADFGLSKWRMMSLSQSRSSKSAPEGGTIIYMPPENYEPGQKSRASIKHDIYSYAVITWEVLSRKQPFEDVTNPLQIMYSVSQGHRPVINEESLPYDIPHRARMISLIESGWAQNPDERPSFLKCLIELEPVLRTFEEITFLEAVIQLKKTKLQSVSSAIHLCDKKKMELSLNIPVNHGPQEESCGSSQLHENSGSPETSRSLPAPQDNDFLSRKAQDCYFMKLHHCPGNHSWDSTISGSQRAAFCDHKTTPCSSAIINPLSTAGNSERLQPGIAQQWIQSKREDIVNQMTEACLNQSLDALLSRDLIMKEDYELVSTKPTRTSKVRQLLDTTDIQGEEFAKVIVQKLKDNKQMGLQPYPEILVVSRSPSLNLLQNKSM
PIM1, sequence (P11309 whole entry): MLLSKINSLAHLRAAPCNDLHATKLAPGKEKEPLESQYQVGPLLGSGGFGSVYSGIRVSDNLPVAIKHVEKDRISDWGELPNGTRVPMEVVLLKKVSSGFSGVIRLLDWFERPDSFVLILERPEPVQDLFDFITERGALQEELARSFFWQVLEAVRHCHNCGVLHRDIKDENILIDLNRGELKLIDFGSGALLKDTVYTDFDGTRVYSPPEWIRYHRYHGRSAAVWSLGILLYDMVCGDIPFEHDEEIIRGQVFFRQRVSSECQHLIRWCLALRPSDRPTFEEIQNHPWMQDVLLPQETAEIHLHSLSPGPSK
YES1, sequence (P07947 whole entry): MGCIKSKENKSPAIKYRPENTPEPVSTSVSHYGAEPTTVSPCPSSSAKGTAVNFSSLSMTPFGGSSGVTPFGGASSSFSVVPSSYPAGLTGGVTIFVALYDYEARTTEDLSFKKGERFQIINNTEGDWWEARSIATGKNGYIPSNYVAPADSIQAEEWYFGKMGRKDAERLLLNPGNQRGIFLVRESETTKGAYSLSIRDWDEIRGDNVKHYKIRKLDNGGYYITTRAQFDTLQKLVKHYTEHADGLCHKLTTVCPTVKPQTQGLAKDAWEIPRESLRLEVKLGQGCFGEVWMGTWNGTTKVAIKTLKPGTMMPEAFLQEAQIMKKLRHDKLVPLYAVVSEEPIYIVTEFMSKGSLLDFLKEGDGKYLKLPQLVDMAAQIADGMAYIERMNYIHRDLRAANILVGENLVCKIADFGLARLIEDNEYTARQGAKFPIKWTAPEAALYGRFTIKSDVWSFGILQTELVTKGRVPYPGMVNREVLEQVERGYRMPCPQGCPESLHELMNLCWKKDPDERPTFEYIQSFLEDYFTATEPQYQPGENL
ERK1, sequence (P27361 whole entry, species assumed): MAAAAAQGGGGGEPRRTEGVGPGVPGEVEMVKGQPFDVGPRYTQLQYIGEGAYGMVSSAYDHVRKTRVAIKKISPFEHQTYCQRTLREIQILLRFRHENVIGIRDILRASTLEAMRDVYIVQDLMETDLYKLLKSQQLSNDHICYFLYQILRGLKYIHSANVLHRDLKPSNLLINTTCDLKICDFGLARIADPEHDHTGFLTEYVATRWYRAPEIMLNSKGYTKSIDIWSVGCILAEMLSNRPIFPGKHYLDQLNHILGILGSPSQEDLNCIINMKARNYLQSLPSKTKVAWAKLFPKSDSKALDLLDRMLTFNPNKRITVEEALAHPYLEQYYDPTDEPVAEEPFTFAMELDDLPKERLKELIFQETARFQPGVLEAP

COc1ccc2sc(-c3cncc(NC(C)=O)c3)nc2c1 [PST-001, N-(5-(5-Methoxybenzo[d]thiazol-2-yl)pyridin-3-yl)acetamide]
remaining activity at 1 µM (ASK1): 114% | remaining activity at 100 µM (ASK1): 131% | remaining activity at 1 µM (ERK1): 109% | remaining activity at 100 µM (ERK1): 108% | remaining activity at 1 µM (GCK): 118% | remaining activity at 100 µM (GCK): 123% | remaining activity at 1 µM (PIM1): 98% | remaining activity at 100 µM (PIM1): 32% | remaining activity at 1 µM (RIPK2): 109% | remaining activity at 1 µM (YES1): 130% | remaining activity at 100 µM (YES1): 128%

COc1ccc2sc(-c3cncc(N)c3)nc2c1 [compound 1, 5-(5-Methoxybenzo[d]thiazol-2-yl)pyridin-3-amine]
remaining activity at 1 µM (ASK1; ASK1, 1 μM): 116% | remaining activity at 100 µM (ASK1; ASK1, 100 μM): 150% | remaining activity at 1 µM (ERK1; ERK1, 1 μM): 99% | remaining activity at 100 µM (ERK1; ERK1, 100 μM): 81% | remaining activity at 1 µM (GCK; GCK, 1 μM): 105% | remaining activity at 100 µM (GCK; GCK, 100 μM): 28% | remaining activity at 1 µM (PIM1; PIM1, 1 μM): 87% | remaining activity at 100 µM (PIM1; PIM1, 100 μM): 24% | remaining activity at 1 µM (RIPK2; RIPK2, 1 μM): 104% | remaining activity at 100 µM (RIPK2; RIPK2, 100 μM): 20% | remaining activity at 1 µM (YES1; YES1, 1 μM): 122% | remaining activity at 100 µM (YES1; YES1, 100 μM): 58%
